{
  "source": "paper PMC7168264",
  "about": "“Modified Aminoglycosides Bind Nucleic Acids in High-Molecular-Weight Complexes” (Antibiotics, 2020)",
  "key": {"HIV-1 RT WT": {"biological_target": "HIV-1 RT WT (Human immunodeficiency virus type 1 group M subtype B, UniProt P04585)", "assay": "biochemical", "protocol": "(§1) Plasmids pET-RT66 and p6H-RT51, which overexpress HIV-1 RT subunits p66 and His6-tagged p51, were generously provided by Samuel Wilson (NIH). Mutations K103N and Y181C were each introduced into pET-RT66 using QuikChange^TM mutagenesis. Subunits p66 and His6-p51 were overproduced in E. coli strains BL21/DE3 and DH5α, respectively, and the RT heterodimer (WT or mutant forms) was reconstituted in mixed lysates and purified essentially as described. Each overexpression strain was grown in LB medium with appropriate antibiotics at 37 °C until the culture reached an OD600 of 0.6, IPTG (0.5 mM) was added, and the culture was further incubated for 3.5 h to allow ample protein production. Cells (from 4 L culture) were pelleted and stored at −20 °C. All subsequent steps were performed at 4 °C. Each cell pellet was resuspended in 20 mL buffer A [50 mM Tris-HCl (pH 7.9), 60 mM NaCl, 10% glycerol, 1 mM βME, and protease inhibitors (Protease Inhibitor Cocktail, Roche Diagnostics)], and the cells were lysed using a French Press. The lysate was clarified by centrifugation at 5900 g for 15 min, and the protein concentration of each lysate was estimated using the Bradford assay. Based on these estimates, each p66 strain lysate was separately mixed with p51 strain lysate in a 3:1 ratio. Each mixture was passed through a Q-Sepharose column (2 mL, Bio-Rad), pre-equilibrated with buffer A, and the flow-through (containing HIV-1 RT) was collected. NaCl (0.5 M), imidazole (10 mM), and 4 mL of His-Bind nickel column resin (Ni-NTA Agarose, QIAGEN) pre-equilibrated in buffer B [50 mM Tris-HCl (pH 7.9), 500 mM NaCl, 10 mM imidazole, 10% glycerol, and 1 mM βME] were added, and the mixture was rotated for 1 h. The resin was poured into a column and washed with 10 column volumes (CV) of buffer B, 10 CV of buffer C [50 mM Tris-HCl (pH 7.9), 1 M NaCl, 10 mM imidazole, 10% glycerol, and 1 mM βME], and 10 CV of buffer D [50 mM Tris-HCl (pH 7.9), 1 M NaCl, 15 mM imidazole, 10% glycerol, and 1 mM βME]. Proteins were eluted from the column with an imidazole gradient (10–500 mM) in buffer B. Fractions (0.5 mL) were collected, and DTT (2 mM) and EDTA (5 mM) were added to each fraction. Fractions were analyzed by SDS-PAGE, and those containing p66 and p51 at a 1:1 ratio were pooled. The RT was further purified using a FPLC RESOURCE S column (6 mL, GE Healthcare). The protein was bound to the column, washed with 10 CV of buffer E [50 mM Tris-HCl (pH 6.5), 60 mM NaCl, 10% glycerol, and 1 mM βME], and eluted using a NaCl gradient. Fractions (0.5 mL) containing purified RT with p66 and p51 subunits at a 1:1 ratio were pooled, dialyzed against buffer F [50 mM Tris-HCl (pH 7.5), 100 mM NaCl, 1 mM βME, and 10% glycerol], and stored at −20 °C.\n(§2) To assay multi-nucleotide incorporation by RT, 5′-[^32P]-labeled primer (~0.05 µM) was annealed to mRNA (0.33 µM, unless otherwise indicated), RT (HIV-1 or AMV; 32 nM) and the four deoxynucleotide triphosphates (dNTPs; 375 µM each) in buffer G [10 mM Tris-HCl (pH 7.5), 60 mM NH4Cl, 10 mM MgCl2, and 6 mM βME] were added, in the absence or presence of inhibitor (as indicated), and reactions were incubated at 37 °C for 10 min. An equal volume of stop buffer (95% formamide, 20 mM EDTA, 0.05% xylene cyanol, and 0.05% bromophenol blue) was added, and products were analyzed by denaturing 7% PAGE. The relative amount of the full-length cDNA product (y) was plotted as a function of inhibitor concentration, and the data were fit to the modified dose response equation y = a + b/[1 + (x/c)]"}, "HIV-1 RT Y181C": {"biological_target": "T1, HIV-1 RT Y181C (Human immunodeficiency virus type 1 group M subtype B, UniProt P04585, Y768C)", "T1 construct": "overexpress HIV-1 RT subunits p66 and His6-tagged p51; made in house; host or cells: E. coli BL21/DE3 (p66) and DH5α (His6-p51)", "assay": "Multi-nucleotide primer extension assay, Y181C HIV-1 RT", "type": "biochemical", "protocol": "as §1, §2"}, "HIV-1 RT K103N": {"biological_target": "T2, HIV-1 RT K103N (Human immunodeficiency virus type 1 group M subtype B, UniProt P04585, K690N)", "T2 construct": "overexpress HIV-1 RT subunits p66 and His6-tagged p51; made in house; host or cells: E. coli BL21/DE3 (p66) and DH5α (His6-p51)", "assay": "Multi-nucleotide primer extension assay, K103N HIV-1 RT", "type": "biochemical", "details": "mean ± SEM from 3 or more independent experiments", "protocol": "as §1, §2"}, "[1]": {"tested_on": "avian myeloblastosis virus (AMV) reverse transcriptase (RT)", "assay": "Multi-nucleotide primer extension assay, AMV RT", "type": "biochemical", "details": "primer extension on RNA template, 10 min at 37 °C; read-out: IC50, full-length cDNA product, AMV RT", "protocol": "as §2"}, "AMV RT": {"tested_on": "AMV RT", "assay": "Single-nucleotide incorporation kinetics (quench-flow), AMV RT", "type": "biochemical, avian myeloblastosis virus", "details": "read-out: IC50, amplitude of single-nucleotide incorporation", "protocol": "(§3) Single-nucleotide incorporation by RT was measured using a quench-flow machine (KinTek RQF-3). Typically, 5′-[^32P]-labeled primer (<0.05 µM) was annealed to mRNA (0.2 µM), equilibrated in buffer H [Tris-HCl (pH 7.5), 80 mM KCl, 20 mM MgCl2, 2 mM DTT] with RT (AMV or HIV-1, as indicated) in the absence or presence of inhibitor (as indicated), and rapidly mixed with dATP (variable concentration, as indicated). Each reaction was quenched with 0.5 M EDTA at various time points; the data were plotted and fit to a single exponential equation to obtain observed rate and amplitude."}, "HIV-1 RT": {"biological_target": "T3, HIV-1 RT (Human immunodeficiency virus type 1 group M subtype B, UniProt P04585)", "T3 construct": "overexpress HIV-1 RT subunits p66 and His6-tagged p51; made in house; host or cells: E. coli BL21/DE3 (p66) and DH5α (His6-p51)", "assay": "Order-of-addition single-nucleotide incorporation, HIV-1 RT", "type": "biochemical", "details": "20 min 37 °C, then combined 1 min", "protocol": "as §3"}, "[2]": {"biological_target": "Radiolabeled RNA oligonucleotide", "assay": "Ultrafiltration binding experiment, RNA oligonucleotide", "details": "fraction in complexes >300 kDa by ultrafiltration (300 kDa MWCO), buffer H, 25 °C, 15 min, read-out: apparent KD, RNA oligonucleotide", "protocol": "(§4) For binding reactions, components were incubated in buffer H at 25 °C for 15 min. The fraction of bound 5′-[^32P]-labeled nucleic acid was evaluated using native 6% PAGE or ultrafiltration devices (Nanosep Omega, PALL Life Sciences)."}, "[3]": {"biological_target": "Radiolabeled DNA oligonucleotide", "assay": "Ultrafiltration binding experiment, DNA oligonucleotide", "details": "fraction in complexes >300 kDa by ultrafiltration (300 kDa MWCO), buffer H, 25 °C, 15 min, read-out: apparent KD, DNA oligonucleotide", "protocol": "as §4"}, "[4]": {"tested_on": "radiolabeled 18mer DNA oligonucleotide", "assay": "Gel mobility shift experiment (native PAGE)", "type": "binding", "details": "compound 100 µM preincubated with 18mer DNA, native gel electrophoresis", "protocol": "as §4"}},
  "note": "Where “and” joins values, the source holds several entries; their conditions need not be identical. Equal values may be shown once. Read-outs that look alike come from different tables or passages of the source.",
  "data": [
    {"smiles": "CCCCCCCCCCSC[C@H]1O[C@H](O[C@@H]2[C@@H](O)[C@H](O[C@H]3O[C@H](CN)[C@@H](O)[C@H](O)[C@H]3N)[C@@H](N)C[C@H]2N)[C@H](O)[C@@H](N)[C@@H]1O", "note": "[KANB-C10]", "values": [
      {"measurement": "IC50", "setting": "HIV-1 RT WT", "result": "3.8 ± 0.3", "unit": "µM"},
      {"measurement": "IC50", "setting": "HIV-1 RT Y181C", "result": "1 ± 0.6", "unit": "µM"},
      {"measurement": "IC50", "setting": "HIV-1 RT K103N", "result": "1.9 ± 0.3", "unit": "µM"}
    ]},
    {"smiles": "CCCCCCCCCCCCCCSC[C@H]1O[C@H](O[C@@H]2[C@@H](O)[C@H](O[C@H]3O[C@H](CN)[C@@H](O)C[C@H]3N)[C@@H](N)C[C@H]2N)[C@H](O)[C@@H](N)[C@@H]1O", "note": "[TOB-C14]", "values": [
      {"measurement": "IC50", "setting": "[1]", "result": "~1 µM and 1.1 µM"},
      {"measurement": "IC50", "setting": "HIV-1 RT WT", "result": "1.9 ± 0.3", "unit": "µM"},
      {"measurement": "IC50", "setting": "HIV-1 RT Y181C", "result": "1.4 ± 0.4", "unit": "µM"},
      {"measurement": "IC50", "setting": "HIV-1 RT K103N", "result": "1.2 ± 0.6", "unit": "µM"}
    ]},
    {"smiles": "CCCCCCCCCCCCSC[C@H]1O[C@H](O[C@@H]2[C@@H](O)[C@H](O[C@H]3O[C@H](CN)[C@@H](O)C[C@H]3N)[C@@H](N)C[C@H]2N)[C@H](O)[C@@H](N)[C@@H]1O", "note": "[TOB-C12]", "values": [
      {"measurement": "IC50", "setting": "[1]", "result": "~1 µM and 1.6 µM"},
      {"measurement": "IC50", "setting": "AMV RT; dATP at 10 µM", "result": 13, "unit": "µM"},
      {"measurement": "IC50", "setting": "AMV RT; dATP at 150 µM", "result": 17, "unit": "µM"},
      {"measurement": "IC50", "setting": "HIV-1 RT WT", "result": "0.3 ± 0.1", "unit": "µM"},
      {"measurement": "IC50", "setting": "HIV-1 RT Y181C", "result": "0.5 ± 0.1", "unit": "µM"},
      {"measurement": "IC50", "setting": "HIV-1 RT K103N", "result": "0.6 ± 0.1", "unit": "µM"},
      {"measurement": "Product formation, single-nucleotide incorporation", "setting": "HIV-1 RT; compound preincubated with RT", "result": "hindered product formation to a lesser degree"},
      {"measurement": "Product formation, single-nucleotide incorporation", "setting": "HIV-1 RT; compound preincubated with primer:template in the absence of RT", "result": "no detectable product"}
    ]},
    {"smiles": "NC[C@H]1O[C@H](O[C@H]2[C@H](O)[C@@H](O[C@H]3O[C@H](CSc4ccc5ccccc5c4)[C@@H](O)[C@H](N)[C@H]3O)[C@H](N)C[C@@H]2N)[C@H](N)C[C@@H]1O", "note": "[TOB-Nap]", "values": [
      {"measurement": "IC50", "setting": "[1]", "result": 23, "unit": "µM"},
      {"measurement": "IC50", "setting": "HIV-1 RT WT", "result": "40 ± 5", "unit": "µM"},
      {"measurement": "IC50", "setting": "HIV-1 RT Y181C", "result": "12 ± 4", "unit": "µM"},
      {"measurement": "IC50", "setting": "HIV-1 RT K103N", "result": "40 ± 11", "unit": "µM"}
    ]},
    {"smiles": "CCCCCCCCCCCCSC[C@H]1O[C@H](O[C@@H]2[C@@H](O)[C@H](O[C@H]3O[C@H](CN)[C@@H](O)[C@H](O)[C@H]3N)[C@@H](N)C[C@H]2N)[C@H](O)[C@@H](N)[C@@H]1O", "note": "[KANB-C12]", "values": [
      {"measurement": "Kd", "setting": "[2]; listed as KAN-C12", "result": 1.1, "unit": "µM"},
      {"measurement": "Kd", "setting": "[2]", "result": "~1", "unit": "µM"},
      {"measurement": "Kd", "setting": "[3]; listed as KAN-C12", "result": 0.6, "unit": "µM"},
      {"measurement": "Kd", "setting": "[3]", "result": "~1", "unit": "µM"},
      {"measurement": "IC50", "setting": "HIV-1 RT WT", "result": "1.9 ± 0.3", "unit": "µM"},
      {"measurement": "IC50", "setting": "HIV-1 RT Y181C", "result": "0.5 ± 0.3", "unit": "µM"},
      {"measurement": "IC50", "setting": "HIV-1 RT K103N", "result": "2 ± 0.2", "unit": "µM"},
      {"measurement": "Gel mobility shift of oligonucleotide", "setting": "[4]", "result": "all signal was shifted to the well"}
    ]},
    {"smiles": "CCCCCCCCSC[C@H]1O[C@H](O[C@@H]2[C@@H](O)[C@H](O[C@H]3O[C@H](CN)[C@@H](O)[C@H](O)[C@H]3N)[C@@H](N)C[C@H]2N)[C@H](O)[C@@H](N)[C@@H]1O", "note": "[KANB-C8]", "values": [
      {"measurement": "IC50", "setting": "HIV-1 RT WT", "result": "8 ± 3", "unit": "µM"},
      {"measurement": "IC50", "setting": "HIV-1 RT Y181C", "result": "8 ± 2", "unit": "µM"},
      {"measurement": "IC50", "setting": "HIV-1 RT K103N", "result": "7 ± 1", "unit": "µM"}
    ]}
  ]
}
